The record followed here is BindingDB's records for doi:10.7270/Q2J67FB5 (Nmmlsc, 2007).

For the assay, the target named is T1, fMet-Leu-Phe receptor (Homo sapiens, UniProt P21462).
T1 sequence (P21462 whole entry): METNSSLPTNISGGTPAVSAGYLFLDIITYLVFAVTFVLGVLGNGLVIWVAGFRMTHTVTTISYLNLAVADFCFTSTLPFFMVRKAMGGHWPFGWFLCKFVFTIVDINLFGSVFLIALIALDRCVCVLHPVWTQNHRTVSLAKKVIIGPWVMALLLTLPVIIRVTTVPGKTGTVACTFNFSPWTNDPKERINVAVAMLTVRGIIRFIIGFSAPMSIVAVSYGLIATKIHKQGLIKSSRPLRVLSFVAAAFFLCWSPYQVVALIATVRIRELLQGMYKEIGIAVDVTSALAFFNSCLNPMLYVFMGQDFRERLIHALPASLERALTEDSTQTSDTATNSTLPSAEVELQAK
Put plainly: FPR ligands, dose response (AID 519).
The term IC50 denotes the concentration that gives 50% inhibition. Low readings indicate inhibition by little substance, high ones a need for much substance. Consider `COc1cccc(C2C(C(=O)c3cc4ccccc4o3)C(=O)C(=O)N2c2cc(C)on2)c1OC` (stereo unspecified) [3-(1-benzofuran-2-carbonyl)-2-(2,3-dimethoxyphenyl)-4-hydroxy-1-(5-methyl-1,2-oxazol-3-yl)-2H-pyrrol-5-one], for which the IC50 was over 66.7 µM.
The compound `Cc1ccc(C(=O)C2C(=O)C(=O)N(Cc3ccccc3)C2c2cccnc2)o1` (stereo unspecified) [1-benzyl-3-hydroxy-4-[(5-methylfuran-2-yl)carbonyl]-5-(pyridin-3-yl)-2,5-dihydro-1H-pyrrol-2-one] displayed a half-inhibitory concentration (IC50) of over 66.7 µM.
For the compound `COc1ccccc1C1C(C(=O)c2ccccc2)C(=O)C(=O)N1CCO` (stereo unspecified) [(4Z)-1-(2-hydroxyethyl)-4-[hydroxy(phenyl)methylene]-5-(2-methoxyphenyl)pyrrolidine-2,3-quinone], the midpoint of inhibition, the IC50, lay at 19.7 µM.
In the case of `COc1ccc(OC)c(C2C(C(=O)c3ccccc3)C(=O)C(=O)N2Cc2ccco2)c1` (stereo unspecified) [(4Z)-5-(2,5-dimethoxyphenyl)-1-(2-furanylmethyl)-4-[hydroxy(phenyl)methylidene]pyrrolidine-2,3-dione], 3.4 µM corresponded to half-maximal inhibition (IC50).
`C=CCOc1cccc(C2C(C(=O)c3ccco3)C(=O)C(=O)N2CCN2CCOCC2)c1` (stereo unspecified) [3-(furan-2-carbonyl)-4-hydroxy-1-(2-morpholin-4-ylethyl)-2-(3-prop-2-enoxyphenyl)-2H-pyrrol-5-one] showed an IC50 of over 66.7 µM.
In turn, `Cc1ccc(C2c3c([nH]c(=S)[nH]c3=O)N=C3CC(C)(C)CC(=O)C32)cc1` (stereo unspecified) [8,8-dimethyl-5-(4-methylphenyl)-2-sulfanylidene-5,7,9,10-tetrahydro-1H-pyrimido[4,5-b]quinoline-4,6-dione] had an IC50 of 47.9 µM.
`COc1ccc(C2C(C(=O)c3ccco3)C(=O)C(=O)N2Cc2cccnc2)cc1OC` (stereo unspecified) [2-(3,4-dimethoxyphenyl)-3-(furan-2-carbonyl)-4-hydroxy-1-(pyridin-3-ylmethyl)-2H-pyrrol-5-one]: the IC50 was over 66.7 µM.
With `O=C1C(=O)N(Cc2ccccc2)C(c2cccnc2)C1C(=O)c1ccco1` (stereo unspecified) [1-Benzyl-4-(furan-2-carbonyl)-3-hydroxy-5-pyridin-3-yl-1,5-dihydro-pyrrol-2-one], the half-inhibitory concentration (IC50) is 30.5 µM.
With `COc1cccc(OC)c1C(=O)C(C#N)c1nc2ccccc2[nH]1` (stereo unspecified) [SMR000024183], the IC50 was over 66.7 µM.
The compound `CC1Cc2cc(C(=O)C3C(=O)C(=O)N(CCN4CCOCC4)C3c3ccccc3F)ccc2O1` (stereo unspecified) [(4E)-5-(2-fluorophenyl)-4-[(2-methyl-2,3-dihydro-1-benzofuran-5-yl)-oxidanyl-methylidene]-1-(2-morpholin-4-ylethyl)pyrrolidine-2,3-dione] had an IC50 of over 66.7 µM.
`CCCOc1ccc(C2C(C(=O)c3ccc(C)o3)C(=O)C(=O)N2CCCn2ccnc2)cc1` (stereo unspecified) [1-(3-imidazol-1-ylpropyl)-3-(5-methylfuran-2-yl)carbonyl-4-oxidanyl-2-(4-propoxyphenyl)-2H-pyrrol-5-one] returned a half-inhibitory concentration (IC50) of 13.8 µM.
The same measure for `COc1cc(C2C(C(=O)c3cccs3)C(=O)C(=O)N2Cc2ccco2)cc(OC)c1OC` (stereo unspecified) [1-(2-furanylmethyl)-4-hydroxy-3-[oxo(thiophen-2-yl)methyl]-2-(3,4,5-trimethoxyphenyl)-2H-pyrrol-5-one]: 27 µM.
For `Cc1ccc(C(=O)C2C(=O)C(=O)N(CCN3CCOCC3)C2c2cccnc2)cc1` (stereo unspecified) [(4Z)-4-[(4-methylphenyl)-oxidanyl-methylidene]-1-(2-morpholin-4-ylethyl)-5-pyridin-3-yl-pyrrolidine-2,3-dione], the IC50 was over 66.7 µM.
In turn, `COC(=O)Cc1n[nH]c2c1C(C1C=CCCC1)C(C#N)C(=N)O2` (stereo unspecified) [2-[6-amino-5-cyano-4-(1-cyclohex-2-enyl)-2,4-dihydropyrano[2,3-c]pyrazol-3-yl]acetic acid methyl ester] returned an IC50 of over 66.7 µM.
Turning to `O=C1C(=O)N(c2ncccn2)C(c2ccc(Cl)c(Cl)c2)C1C(=O)c1ccco1` (stereo unspecified) [2-(3,4-dichlorophenyl)-3-(furan-2-carbonyl)-4-hydroxy-1-pyrimidin-2-yl-2H-pyrrol-5-one], the IC50 is over 66.7 µM.
`COc1ccccc1C1C(C(=O)c2ccccc2)C(=O)C(=O)N1CC(C)O` (stereo unspecified) [(4Z)-4-[hydroxy(phenyl)methylene]-1-(2-hydroxypropyl)-5-(2-methoxyphenyl)pyrrolidine-2,3-quinone] gave an IC50 of 24.6 µM.
With `CCOc1ccc(C2C(C(=O)c3ccco3)C(=O)C(=O)N2CCCn2ccnc2)cc1` (stereo unspecified) [2-(4-ethoxyphenyl)-3-(furan-2-carbonyl)-4-hydroxy-1-(3-imidazol-1-ylpropyl)-2H-pyrrol-5-one], the IC50 came out at 9.9 µM.
As for `COc1ccc(C2C(C(=O)c3cccs3)C(=O)C(=O)N2c2nnc(C)s2)cc1OC` (stereo unspecified) [2-(3,4-dimethoxyphenyl)-1-(5-methyl-1,3,4-thiadiazol-2-yl)-4-oxidanyl-3-thiophen-2-ylcarbonyl-2H-pyrrol-5-one], the IC50 was over 66.7 µM.
Take `Cc1ccc(C(=O)C2C(=O)C(=O)N(CCCn3ccnc3)C2c2ccc(OC(C)C)cc2)o1` (stereo unspecified) [1-(3-imidazol-1-ylpropyl)-3-(5-methylfuran-2-yl)carbonyl-4-oxidanyl-2-(4-propan-2-yloxyphenyl)-2H-pyrrol-5-one]: the IC50 is over 66.7 µM.
The same measure for `Cc1nc(C)c(C(=O)C2C(=O)C(=O)N(CCCn3ccnc3)C2c2ccc(Cl)cc2)s1` (stereo unspecified) [2-(4-chlorophenyl)-3-(2,4-dimethyl-1,3-thiazole-5-carbonyl)-4-hydroxy-1-(3-imidazol-1-ylpropyl)-2H-pyrrol-5-one]: over 66.7 µM; for `Cc1cc(N2C(=O)C(=O)C(C(=O)c3ccco3)C2c2cccnc2)no1` (stereo unspecified) [3-(furan-2-carbonyl)-4-hydroxy-1-(5-methyl-1,2-oxazol-3-yl)-2-pyridin-3-yl-2H-pyrrol-5-one]: over 66.7 µM.
Compound `C=CCOc1ccc(C2C(C(=O)c3cccs3)C(=O)C(=O)N2c2nnc(C)s2)cc1` (stereo unspecified) [1-(5-methyl-1,3,4-thiadiazol-2-yl)-4-oxidanyl-2-(4-prop-2-enoxyphenyl)-3-thiophen-2-ylcarbonyl-2H-pyrrol-5-one] gave a half-maximal inhibitory concentration (IC50) of 40.5 µM.
On to `O=C1C(=O)N(Cc2ccco2)C(c2ccccc2)C1C(=O)c1cccs1` (stereo unspecified) [1-(2-furanylmethyl)-4-hydroxy-3-[oxo(thiophen-2-yl)methyl]-2-phenyl-2H-pyrrol-5-one], for which the IC50 is 35.2 µM.
On to `Cc1nc2c(C)cccn2c1C(=O)C1C(=O)C(=O)N(CCN2CCOCC2)C1c1cccs1` (stereo unspecified) [(4E)-4-[(2,8-dimethyl-3-imidazo[1,2-a]pyridinyl)-hydroxymethylidene]-1-[2-(4-morpholinyl)ethyl]-5-thiophen-2-ylpyrrolidine-2,3-dione], for which the IC50 is over 66.7 µM.
Next, `O=C1C(=O)N(CCc2ccccc2)C(c2cccnc2)C1C(=O)c1ccco1` (stereo unspecified) [3-(furan-2-carbonyl)-4-hydroxy-1-(2-phenylethyl)-2-pyridin-3-yl-2H-pyrrol-5-one]: over 66.7 µM.
In the case of `O=C1C(=O)N(c2ncccn2)C(c2cccc(Cl)c2)C1C(=O)c1ccco1` (stereo unspecified) [2-(3-chlorophenyl)-3-(furan-2-carbonyl)-4-hydroxy-1-pyrimidin-2-yl-2H-pyrrol-5-one], the IC50 was over 66.7 µM.
`COCCCN1C(=O)C(=O)C(C(=O)c2ccccc2)C1c1ccc2c(c1)OCO2` (stereo unspecified) [(4E)-5-(1,3-benzodioxol-5-yl)-1-(3-methoxypropyl)-4-[oxidanyl(phenyl)methylidene]pyrrolidine-2,3-dione]: inhibition was half-maximal at 29.6 µM (IC50).
For `CCOc1ccc(C(=O)C2C(=O)C(=O)N(CC3CCCO3)C2c2ccco2)cc1` (stereo unspecified) [(4Z)-4-[(4-ethoxyphenyl)-hydroxymethylidene]-5-(2-furanyl)-1-(2-oxolanylmethyl)pyrrolidine-2,3-dione], the IC50 turned out to be 32 µM.
In the case of `COCCCN1C(=O)C(=O)C(C(=O)c2ccco2)C1c1ccccc1` (stereo unspecified) [3-(furan-2-carbonyl)-4-hydroxy-1-(3-methoxypropyl)-2-phenyl-2H-pyrrol-5-one], the IC50 came out at 14.5 µM.
With `C=C(c1ccc(Br)cc1)c1sc(N2CCCC2)nc1O` [(5Z)-5-[1-(4-bromophenyl)ethylidene]-2-(1-pyrrolidinyl)-4-thiazolone], the IC50 is over 66.7 µM.
The compound `CCOc1ccc(C2C(C(=O)c3cccs3)C(=O)C(=O)N2CCCn2ccnc2)cc1` (stereo unspecified) [2-(4-ethoxyphenyl)-1-(3-imidazol-1-ylpropyl)-4-oxidanyl-3-thiophen-2-ylcarbonyl-2H-pyrrol-5-one] returned an IC50 of 57.1 µM.
`O=C1C(=O)N(CCN2CCOCC2)C(c2ccccc2)C1C(=O)c1cccs1` (stereo unspecified) [1-(2-morpholin-4-ylethyl)-4-oxidanyl-2-phenyl-3-thiophen-2-ylcarbonyl-2H-pyrrol-5-one] yielded an IC50 of over 66.7 µM.
`Cc1ccc(C2C(C(=O)c3ccc(Cl)cc3)C(=O)C(=O)N2CC2CCCO2)o1` (stereo unspecified) [(4Z)-4-[(4-chlorophenyl)-hydroxy-methylene]-5-(5-methyl-2-furyl)-1-(tetrahydrofurfuryl)pyrrolidine-2,3-quinone]: inhibition was half-maximal at 11.6 µM (IC50).
The compound `COC(=O)c1ccc(C2C(C(=O)c3ccc(OC)cc3)C(=O)C(=O)N2Cc2ccco2)cc1` (stereo unspecified) [4-[(3Z)-1-(2-furanylmethyl)-3-[hydroxy-(4-methoxyphenyl)methylidene]-4,5-dioxo-2-pyrrolidinyl]benzoic acid methyl ester] showed an IC50 of 43 µM.
In turn, `COCCCN1C(=O)C(=O)C(C(=O)c2ccc3c(c2)CC(C)O3)C1c1cccnc1` (stereo unspecified) [(4E)-1-(3-methoxypropyl)-4-[(2-methyl-2,3-dihydro-1-benzofuran-5-yl)-oxidanyl-methylidene]-5-pyridin-3-yl-pyrrolidine-2,3-dione] returned an IC50 of over 66.7 µM.
Compound `CCOc1cc(C2C(C(=O)c3ccc(C)o3)C(=O)C(=O)N2CCc2ccccc2)ccc1O` (stereo unspecified) [2-(3-ethoxy-4-hydroxyphenyl)-4-hydroxy-3-(5-methylfuran-2-carbonyl)-1-(2-phenylethyl)-2H-pyrrol-5-one] registered an IC50 of 30.4 µM.
